Source: patent publication US6787546B2, “Heterocycle derivatives and drugs” (Nippon Shinyaku Co., Ltd., priority 1999, dated 2004)
≈ marks a conversion by molar mass, not a printed value. Read-outs that look alike come from different tables or passages of the source.

Legend:
Solubility in water = type: physicochemical
Experimental: The water solubility of the compound of the present invention was measured at 25° C. As the control compounds, (E)-4-(2-(2-(N-(4-methoxybenzenesulfonyl)amino)-phenyl)ethenyl)pyridine 1-oxide (Compound A) and (E)-4-(2-(2-(N-acetyl-N-(4-methoxy-benzenesulfonyl)amino)phenyl)ethenyl)pyridine 1-oxide (Compound B) were used.

[1] = tested on: Colon-26 (Mouse Colon Cancer) Cells; experiment: Anticancer activity against Colon-26 cells transplanted in mice; type: in vivo; conditions: day 21; for Tumor growth inhibition rate (%): 5 times at intervals of 4 days; for Number of Survival: 6 animals/group
Experimental: Anticancer Activity Against Colon-26 (Mouse Colon Cancer) Cells Transplanted in Mice
Colon-26 cells cultured in vitro were transplanted subcutaneously with an injection syringe in the right axillary region of Balb/c 5-week-old male mice (5×10^5 cells/animal). The mice were divided into groups of 6 animals/group when the tumor volume had reached about 120 mm^3 (Experiment 1) or about 100 mm^3 (Experiment 2). The test drug dissolved in 5% glucose solution was administered intravenously 5 times in total once daily at intervals of 4 days. The mice of control group were treated in the same manner with 5% glucose solution. The tumor volume was calculated according to the Equation 1 below on the basis of the major and minor axes of the tumor measured at a given interval with vernier calipers. [formula]
The growth rate was then calculated according to the Equation 2 based on the tumor volume, which was then applied to the Equation 3 for the calculation of the growth inhibition rate in drug-treatment group relative to the control group. [formula]
The tumor growth inhibition rate and the number of survivals at day 21 after initiation of the administration are shown in Table 1.

[2] = Experiment 1 (tumor about 120 mm^3 at start), 50 mg/kg i.v.
[3] = Experiment 1 (tumor about 120 mm^3 at start), 75 mg/kg i.v.
[4] = Experiment 2 (tumor about 100 mm^3 at start), 50 mg/kg i.v.
[5] = Experiment 2 (tumor about 100 mm^3 at start), 75 mg/kg i.v.
[6] = Experiment 1, dose not printed (second dose line of Example 5), i.v.

Compound: COc1ccc(S(=O)(=O)Nc2ccccc2/C=C/c2cc[n+]([O-])cc2)cc1 [Compound A, (E)-4-(2-(2-(N-(4-methoxybenzenesulfonyl)amino)-phenyl)ethenyl)pyridine 1-oxide]
- solubility (Solubility in water; 25 °C): 29 µg/mL (≈ 75.8 µM)

Compound: COc1ccc(S(=O)(=O)N(C(=O)CN2CCN(c3ccccn3)CC2)c2ccccc2/C=C/c2cc[n+]([O-])cc2)cc1.Cl.Cl [Example 9, (E)-4-(2-(2-(N-(4-Methoxybenzenesulfonyl)-N-(4-(2-pyridyl)piperazino)acetylamino)phenyl)ethenyl)pyridine 1-oxide dihydrochloride]
- Tumor growth inhibition rate (%) [1, 2]: 80.8%
- Tumor growth inhibition rate (%) [1, 3]: 93.6%
- Number of Survival ([1]; Experiment 1, 50 mg/kg i.v.): 6/6
- Number of Survival ([1]; Experiment 1, 75 mg/kg i.v.): 5/6

Compound: COc1ccc(S(=O)(=O)N(C(=O)CN)c2ccccc2/C=C/c2cc[n+]([O-])cc2)cc1.Cl
- melting point: 235 to 237 °C

Compound: COc1ccc(S(=O)(=O)N(C(=O)CN2CCN(c3cccnc3)CC2)c2ccccc2/C=C/c2cc[n+]([O-])cc2)cc1.Cl.Cl
- melting point: 167 °C (dec.)

Compound: COc1ccc(S(=O)(=O)N(C(=O)CN2CCOCC2)c2ccccc2/C=C/c2cc[n+]([O-])cc2)cc1.Cl [Example 13, (E) -4-(2-(2-(N-(4-Methoxybenzenesulfonyl)-N-morpholinoacetyl-amino)phenyl)ethenyl)pyridine 1-oxide hydrochloride]
- Tumor growth inhibition rate (%) [1, 4]: 73.8%
- Tumor growth inhibition rate (%) [1, 5]: 92.6%
- Number of Survival ([1]; Experiment 2, 50 mg/kg i.v.): 6/6
- Number of Survival ([1]; Experiment 2, 75 mg/kg i.v.): 6/6

Compound: COc1ccc(S(=O)(=O)N(C(=O)CN2CCCCC2)c2ccccc2/C=C/c2cc[n+]([O-])cc2)cc1.Cl [Example 5, (E)-4-(2-(2-(N-(4-Methoxybenzenesulfonyl)-N-piperidinoacetyl-amino)phenyl)ethenyl)pyridine 1-oxide hydrochloride]
- Tumor growth inhibition rate (%) [1, 2]: 78.0%
- Number of Survival ([1]; Experiment 1, 50 mg/kg i.v.): 6/6
- Tumor growth inhibition rate (%) [1, 6]: 87.7%
- Number of Survival [1, 6]: 6/6

Compound: COc1ccc(S(=O)(=O)N(C(C)=O)c2ccccc2/C=C/c2cc[n+]([O-])cc2)cc1 [Compound B, (E)-4-(2-(2-(N-acetyl-N-(4-methoxy-benzenesulfonyl)amino)phenyl)ethenyl)pyridine 1-oxide]
- solubility (Solubility in water; 25° C., control compounds, read-out: water solubility): 18 µg/mL (≈ 42.4 µM)

Compound: COc1ccc(S(=O)(=O)N(C(=O)CN2CCCC2)c2ccccc2/C=C/c2cc[n+]([O-])cc2)cc1.Cl [Example 14, (E)-4-(2-(2-(N-(4-Methoxybenzenesulfonyl)-N-pyrrolidinoacetylamino) -phenyl)ethenyl)pyridine 1-oxide hydrochloride]
- Tumor growth inhibition rate (%) [1, 4]: 78.6%
- Tumor growth inhibition rate (%) [1, 5]: 84.1%
- Number of Survival ([1]; Experiment 2, 50 mg/kg i.v.): 6/6
- Number of Survival ([1]; Experiment 2, 75 mg/kg i.v.): 6/6

Compound: COc1ccc(S(=O)(=O)N(C(=O)c2cccnc2)c2ccccc2/C=C/c2cc[n+]([O-])cc2)cc1.Cl.Cl
- melting point: 187 to 189 °C

Compound: COc1ccc(S(=O)(=O)N(C(=O)c2ccncc2)c2ccccc2/C=C/c2cc[n+]([O-])cc2)cc1.Cl.Cl
- melting point: 198 to 200 °C

Compound: COc1ccc(S(=O)(=O)N(C(=O)CN(C)C)c2ccccc2/C=C/c2cc[n+]([O-])cc2)cc1.Cl [Example 8, (E)-4-(2-(2-(N-(N,N-Dimethylglycyl)-N-(4-methoxybenzenesulfonyl) -amino)phenyl)ethenyl)pyridine 1-oxide hydrochloride]
- Tumor growth inhibition rate (%) [1, 2]: 87.0%
- Tumor growth inhibition rate (%) [1, 3]: 95.9%
- Number of Survival ([1]; Experiment 1, 50 mg/kg i.v.): 5/6
- Number of Survival ([1]; Experiment 1, 75 mg/kg i.v.): 5/6
